A word on the IC50: it is the point on the concentration scale where inhibition reaches its midpoint.

IC50 data for 24 molecules are collected here from PubChem BioAssay AID1053171 (The Scripps Research Institute Molecular Screening Center, 2014).

The assay addresses HIV-1 integrase (multimerization). As to the kind of experiment: compounds increasing HIV-1 IN multimer formation – biochemical, TR-FRET, counter-screen for LEDGF/p75 integration inhibitor project, dose response (AID 1053171). For orientation: In TR-FRET formats the signal depends on donor and acceptor labels being close together.

Activity calls are given as the source filed them. No rule for the calls is given here.

In the case of `COc1cc(C)cc(C(=O)O)c1C1=C(O)c2cccc(O)c2C(=O)C1=O`, the IC50 result was “inactive”.

As for `CN(C)[C@@H]1C(=O)C(C(N)=O)=C(O)[C@@]2(O)C(=O)C3=C(O)c4c(O)cccc4[C@@](C)(O)C3[C@H](O)C12` (some centres undefined), the IC50 entry is “inactive”.

Turning to `O=c1cc2c(=O)oc3cc(O)c(O)oc3c2c(O)c1O`, the concentration for half-maximal inhibition (IC50) is 0.354 µM.

Consider `O=C1C=C(O)c2c(O)cc(O)c(O)c2C1=O`, for which the IC50 is 0.085 µM.

For the molecule `O=C1C=C(O)c2[nH]c(=O)ccc2C1=O`, the IC50 was 7.38 µM.

Consider `Cc1cc(C(=O)N/N=C/c2ccc(O)c([N+](=O)[O-])c2)c(C)n1-c1ccc(F)cc1`, for which the IC50 result is “inactive”.

In the case of `Cc1c(CC(=O)N2CCN(C(=O)C3COc4ccccc4O3)CC2)c(=O)oc2c(O)c(O)ccc12` (centres undefined), the IC50 is > 53.7 µM (inactive).

On to `CC1=NN(c2cccc(C(=O)O)c2)C(=O)/C1=C\C=C\c1ccco1`, for which the 50% inhibitory concentration (IC50) was 1.41 µM.

Regarding `O=C1NC(=Nc2ccc(O)cc2)S/C1=C\C=C\c1ccco1`, the IC50 result was “inactive”.

As for `N/C(=N\N=C/c1ccc(-c2ccc(O)c(C(=O)O)c2)o1)N[N+](=O)[O-]`, the half-inhibitory concentration (IC50) is 4.54 µM.

In the case of `O=C1/C(=C\c2ccc(O)c(O)c2)C(c2ccccc2)=NN1c1ccccc1`, the IC50 is 8.68 µM.

On to `C[n+]1c2cc(N)ccc2cc2ccc(N)cc21`, for which the IC50 was > 17.9 µM (inactive).

Regarding `O=C1C=C(Nc2ccccc2O)c2ccccc2C1=O`, the IC50 entry was “inactive”.

With `O=C1c2cc(O)c(O)cc2OC(c2ccc(O)c(O)c2)C1O` (centres undefined), the IC50 result is “inactive”.

Turning to `NC(=O)c1ccc(N=Cc2c(O)n(Cc3ccco3)c(=O)[nH]c2=O)cc1`, the IC50 is > 53.7 µM (inactive).

Take `CN(C)c1ccc(O)c2c1CC1CC3[C@@H](N(C)C)C(=O)C(C(N)=O)=C(O)[C@]3(O)C(=O)C1=C2O` (some centres undefined): the half-inhibitory concentration (IC50) is 2.53 µM.

Turning to `O=C1CCCC(O)=C1N=Nc1ccc(C(=O)O)cc1`, the IC50 was 2.72 µM.

Regarding `CN(C)C1C(=O)C(C(N)=O)=C(O)C2(O)C(=O)C3=C(O)c4c(O)cccc4C(C)(O)C3C(O)C12` (centres undefined), the IC50 result is “inactive”.

Consider `O=c1c(O)c(-c2ccc(O)c(O)c2)oc2cc(O)ccc12`, for which the IC50 is 1.45 µM.

Take `NS(=O)(=O)c1ccc(N/N=C/c2ccc(O)c(O)c2O)c([N+](=O)[O-])c1`: the 50% inhibitory concentration (IC50) is 3.4 µM.

Consider `C=C1c2cccc(O)c2C(O)=C2C(=O)[C@]3(O)C(O)=C(C(N)=O)C(=O)[C@@H](N(C)C)[C@@H]3[C@@H](O)[C@H]12`, for which the concentration for half-maximal inhibition (IC50) is 8.53 µM.

Turning to `O=c1c(O)c(-c2ccc(O)c(O)c2)oc2cc(O)cc(O)c12`, the IC50 is 5.34 µM.

As for `O=[N+]([O-])c1ccccc1NC(=S)N/N=C/c1ccc(O)c(O)c1`, the IC50 result was “inactive”.

Turning to `O=[N+]([O-])c1cc(Br)c(O)c(C=Nc2ccc(N3CCOCC3)cc2)c1`, the IC50 was > 53.8 µM (inactive).
